“Also recorded” adds a separate entry of the source.
Key:
[1] = pyrogallol induced ROS (superoxide) scavenging assay; type: biochemical; conditions: Concentration 250 μM; Time 0.5 h
HUVEC [2] = test: HUVEC viability / cytoprotection under H2O2 induced oxidative stress (MTT); type: cell-based, Human; conditions: for effective range of concentration to protect ECs: ECs under H2O2 stress; for cytoprotective activity: different concentrations
[3] = test system: mouse hippocampal neural cells (HT-22); test: cytotoxicity / proliferation in mouse hippocampal neural cells (HT-22); conditions: for cell proliferation: different doses
[4] = test system: human trabecular meshwork cells; test: cytoprotection of human trabecular meshwork cells under TBHP induced oxidative stress; type: cell-based; conditions: for concentration providing cytoprotection: oxidative stress induced cell death model; for cytoprotective activity: TBHP (300 μM) induced oxidative stress
[5] = test system: plasminogen activating inhibitor-1 (PAI-1); test: DEX induced PAI-1 in human trabecular meshwork cells (western blot); type: cell-based; conditions: DEX 100 nM, compound 100 μM, 48 hr, conditioned medium
Protocol: Briefly, cells were plated at a density of 2×10^5 cells per well and were treated with DEX (100 nM) or vehicle (ethanol) in the presence of 100 μM of SA-1, SA-2, SA-9, SA-10 and PBA (positive control) for 48 hr. Conditioned medium was collected for western blot. Experiments were performed in triplicates.
In vitro plasminogen activating inhibitor-1 (PAI-1) activity. Human primary trabecular meshwork (hTM) cells were plated in 6-well plates at a density of 2×10^5 cells per well and were treated with dexamethasone (DEX, 100 nM) or vehicle (ethanol) in the presence of test compounds (100 μM) for 48 hr. Conditioned medium was collected for Western Blot. Experiments were performed in triplicates […].

[6] = test system: Nitric oxide synthetase (NOS); test: NOS activating activity in HUVEC under H2O2 stress; type: cell-based, Human; conditions: for level of NOS: HUVEC treated with H2O2, both doses 0.05 μM and 0.5 μM; for eNOS activity: HUVEC under H2O2 induced oxidative stress
Protocol: In vitro Nitric oxide synthetase (NOS) activating activity. Human Umbilical Vascular Endothelial Cells (HUVECs) were plated at a density of 2×10^5 cells per well and were treated with or without H2O2 (200 μM) and compounds at different concentrations. NOS knock-down samples (NOSi) were cells exposed to a competitive NOS inhibitor L-NNA at 50 μM. After 24-hour-treatment, total NOS activity from treated cells was quantified using OxiSelect™ Intracellular Nitric Oxide (NO) Assay Kit where NOS activity correlates to fluorescent intensity^5.

HUVEC [7] = test: in vitro angiogenesis / tube formation under oxidative stress; type: cell-based, Human; conditions: for angiogenesis and new tube formation: HUVEC under oxidative stress (200 μM H2O2); for angiogenesis and new tube formation (FIG. 5): SA-9 0.5 μM, SA-10 0.005 μM, H2O2 200 μM, low serum media
Protocol: In vitro angiogenesis studies. Cultrex reduced growth factor basement membrane extracted gel (Cat. 3433-005-01, R&D Systems, Inc.) was coated on bottom of μ-Slide angiogenesis wells (Cat. 81506, iBidi GmbH Co.). ECs at early passages (passage 6th or earlier) were then seeded on gel at a seeding density of 25,000 cells/cm^2. Next, cells were treated with treatment groups (SA-2, SA-10, SA-10 NPs, VEGF) under stress condition (200 μM H2O2). After 12 hours of incubation, formation of new microtubes were visualized and captured on phase contrast microscopes. Images were then stacked and processed with Angiogenesis analyzer on ImageJ.

ROS in HUVEC cells = test: ROS scavenging in HUVEC under oxidative stress (DCFDA assay); type: cell-based, Human; conditions: H2O2 induced oxidative stress, SA-9 at 0.05 μM
endothelial cells = test: transwell chemotaxis EC migration under oxidative stress; type: cell-based, Human; conditions: for EC migration (FIG. 6): 0.5 μM, transwell
Protocol: Cell migration studies. Transwell chemotaxis migration studies were conducted to study effects of SA-2 and SA-10 drugs on the migration of endothelial cells under stress conditions. To this, ECs were seeded at 50,000 cells/cm^2 on upper compartment (low serum media with 200 μM H2O2) and attracted to migrate through 8 μm-pore membrane by chemotaxis (SA compounds dissolved in low serum media with 200 μM H2O2) added in lower compartment. At 12 hours, migrated cells were fixed with 4% paraformaldehyde and stained with crystal violet prior to imaging and counting by Cell counter on ImageJ.

[8] = test system: primary microglia isolated from rat retina; test: TII induced ROS in primary microglia (DCFDA assay); conditions: for TII induced ROS production: 10 μM, 24 h, TII = TNF-α, IL-1β, IFN-γ; for activation of microglia by the compound itself: rat primary microglia, without TII
[9] = test system: primary microglia isolated from rat retina; test: TII induced cell death in primary microglia (LDH assay); type: cell-based; conditions: 10 μM, 24 h
[10] = test system: primary microglia isolated from rat retina; test: TII induced nitric oxide in primary microglia (Greiss assay); type: cell-based; conditions: 10 μM, 24 h
I/R mice retina = test: retinal ischemia/reperfusion injury model in mouse eyes; type: in vivo
Protocol: The function of retinal ganglion cells (RGCs) can be non-invasively assessed by pattern electroretinogram (PERG) a technique that emphasizes the activity of inner retina neurons. The amplitude of PERG reflects the degree of apparent damage by RGCs. A murine model of ocular stroke was employed to evaluate the function of […] upon administration of SA-10. After a single intravitreal injection of 100 μM of SA-10 to the left eye of mice (C57BL/6J, 12 weeks old, female) having undergone ischemia reperfusion (I/R) procedure, standard PERG was analyzed 1 week post I/R to determine whether compound SA-10 could prevent PERG deficits (FIGS. 9A & 9B). […] However, there was a significant decrease in PBS treated mice compared to PERG amplitudes from sham mice (14.8±1.4 μV, n=5). As expected, compound SA-10 injection increased PERG amplitude compared to PBS-treated I/R mice (21±1.4 μV, n=5, p<0.05 vs. I/R+PBS treated mice; values signify mean±SEM).
Ischemic/reperfusion injury model in mouse eyes. Mice (C57Bl6/J, 12 weeks, n=5) were anesthetized and the ischemic/reperfusion (I/R) injury was performed on left eye after it was numbed with proparacaine followed by intravitreal injection of 2 μl of […] of compound SA-10 formulated in PBS (I/R+SA-10 group) or only 2 μl PBS to left eye (I/R+PBS group) at days 0. At day 7, pattern ERG was performed with the JORVEC System. SD-OCT was done to measure the change in overall thickness of retina layers and flash ERG was done to measure the function of bipolar cells (b-wave) as well as photoreceptor cells (a-wave) after 28 days. Pattern ERG was performed to measure the function of RGCs. Right eye was served as contralateral control.

ischemic hindlimb mice = test: hind limb ischemia (PAD) model: blood perfusion and treadmill; type: in vivo, mouse
Source text: Parameters: Incline 30 degrees; max endurance test at […]; stimulation: 1.5 mA. Stimulation and distance count were stopped when a mouse met one of the following conditions: 1) total stimulation time 30 seconds; or 2) single stimulation time is more than 10 seconds.
Animal model. Since PAD happens commonly in old people, the inventor used old mice for ischemic hindlimb animal models. To this, male and female Balb/c mice at age of 30-40 weeks old were chosen for these in vivo studies. Animals were housed in individual cage at normal diet before performing ligation. In brief, animals were anesthetized with 2% isoflurane, and prior to incision, analgesic SR Buprenorphine was injected subcutaneously (at dose of 1 mg/kg for mice). Upon opening the incision on animals left legs, the membrane covering the inguinal fat tissue was carefully separated to expose the neurovascular bundle underneath and veins and nerves were then carefully separated from arteries. Next, three pair of 1 mm-distal ties (using 6-0 or 7-0 nonabsorbable suture) followed by transection (by spring scissor) were made on femoral artery, proximal caudal femoral artery and superficial caudal epigastric artery. Finally, the incision was closed by absorbable 5-0 or 6-0 sutures. The animal model appeared limping similar to literature report^37 from the time post-treatment until endpoint study.
Therapeutic groups of study and sample size. After 3 days of ligation, mice were randomly assigned into 4 groups: Sham, free SA-10, SA-10 NPs and blank PLGA NPs. Sham groups were injected with saline without any therapeutic treatment. Based on study of biodistribution, the route of administration was intramuscular (IM) injection. To determine sample size, a power of analysis was processed on SigmaPlot v.13 software. Significant difference would be considered when P<0.05. Based on the inventor's own experience and literature reports, the inventor selected power with α<0.05 as 0.8. Calculation yielded sample size as n=5.
In vivo blood perfusion and physical test. Animals under treatments were measured for their recovery physiologically and physically. In the former study, animals were anesthetized with 1.5-2% isoflurane, and blood perfusion was measured with Laser Speckle Contrast Imaging (PeriCam PSI NR, Perimed AB). Briefly, hemoglobin in shallow vessels and capillaries responded to exciting lasers in term of color pigments. The relative blood perfusion was calculated by device software (PIMSoft), and it correlated to typical pigments. […]
When the animal was not running for total of 30 seconds under stimulation, the run of animals was terminated from recording. Physical recovery of animals was then quantified as covered distance until exhaustion, which was obtained from the treadmill software.

[11] = HUVEC, H2O2 induced oxidative stress

SMILES	AUCt=0 to t=3h [1]	effective range of concentration to protect ECs (HUVEC [2])	cell proliferation [3]	concentration providing cytoprotection [4]	DEX induced PAI-1 [5]	level of NOS [6]	eNOS activity [6]	angiogenesis and new tube formation (HUVEC [7])	angiogenesis and new tube formation (FIG. 5) (HUVEC [7])	cytoprotective activity (HUVEC [2]; [11])	ROS scavenging activity in DCFDA assay (ROS in HUVEC cells)	EC migration (endothelial cells)	EC migration (FIG. 6) (endothelial cells)	TII induced ROS production [8]	activation of microglia by the compound itself [8]	cytoprotective activity [4]	TII induced cell death (LDH release) [9]	TII induced nitric oxide (nitrite) production [10]	further results
O=c1cc(-c2ccccc2)oc2cc(O)c(O)c(O)c12 [Baicalein, baicalein]	1944																		
CC1(C)CC([n+]2cc(N)on2)CC(C)(C)N1O [SA-2, reference compound]	3338	up to 1 μM	didn't show such trend	16 µM	didn't show such activity	increased the level of NOS significantly	induced eNOS signals												doses showing cytoprotective activity (HUVEC [2]; [11]): decreased as the dose increased
Nc1c[n+](C2CCSCC2)no1 [SA-9]	3402		dose dependent increase in cell proliferation	8 µM		increased the level of NOS significantly	increase in eNOS activity	induce angiogenesis and new tube formation	induce angiogenesis and new tube formation	potent cytoprotective activity	scavenged ROS	induce EC migration	induce EC migration	decrease	did not activate	superior cytoprotective activity	decrease the cell death	decrease	cytotoxicity ([3]; different concentrations): not toxic to neural cells
Nc1c[n+](C2CCS(=O)(=O)CC2)no1 [SA-10]		up to 100 μM			showed inhibition; also recorded: decreased DEX induced increase in PAI-I level		induced eNOS signals	induce angiogenesis and new tube formation; also recorded: significantly induced tube formation	induce angiogenesis and new tube formation	potent cytoprotective activity	didn't show any significant ROS scavenging activity	induce EC migration; also recorded: performed comparably to SA-2	induce EC migration	decrease	did not activate	cytoprotective activity	decrease the cell death	decrease	EC protection, longer protection study (HUVEC [2]; 2-day stress with 400 μM H2O2): protected over the course of 2-day stress; PERG amplitude (I/R mice retina; 1 week post I/R, single intravitreal injection 100 μM, mean±SEM, n=5): 21±1.4 μV; retinal layer thickness by SD-OCT (I/R mice retina; after I/R): maintenance of retinal layer thickness; ERG amplitude (a- and b-wave) damage after I/R (I/R mice retina; flash ERG 28 days post-I/R): significantly reversed these damages; protein nitrosylation in retina (I/R mice retina; intravitreal dosing of 2%): doesn't cause any significant protein nitrosylation; retina protection against ischemic stroke and reperfusion (I/R mice retina; single intravitreal injection): protective to retina; blood perfusion indexes (ischemic hindlimb mice; 0.125 mg/kg drug, IM, ischemic versus normal limb): performed better than sham and blank vehicle at the beginning; endurance run (ischemic hindlimb mice; 0.125 mg/kg drug, IM, treadmill distance until exhaustion): performed better than sham and blank vehicle at the beginning; recovery in treadmill experiment (ischemic hindlimb mice; IM injection, day 0 and day 7, vs. sham and VEGF): good recovery effects; new blood vessel formation and blood circulation (ischemic hindlimb mice; mouse leg after artery occlusion, assessed by treadmill): increase new blood vessel formation and blood circulation
[NH-]c1c[n+](N2CCOCC2)no1 [SIN-1, reference compound]	1856													did not					

From patent US12234228B2, “Nitric oxide donor and anti-oxidant compounds” (University of North Texas Health Science Center, priority 2018, dated 2025)
